How the values were obtained:
HO-1 = test: Nrf2 target gene induction in MDA-MB-435 cells, qPCR: HO-1; assay type: cell-based, human; details: 16 hours
Method: FIG. 43. Induction of HO-1. FIGS. 43A and 43B: MDA-MB-435 human melanoma cells were treated with vehicle (DMSO) or the indicated compounds and concentrations for 16 hours. HO-1 mRNA levels were quantified using qPCR and were normalized relative to a DMSO-treated sample run in parallel. Values are averages of duplicate wells. FIG. 43C: MDA-MB-435 cells were treated with vehicle (DMSO) or the indicated compounds at 400 nM for 16 hours. HO-1, TrxR1 and actin protein levels were assayed by immunoblotting. Actin served as a loading control.
(§1) FIGS. 44, 46 and 47—Induction of HO-1, TrxR1 and γ-GCS. FIGS. 44A-C, 46A-C, 47A-C: MDA-MB-435 human melanoma cells were treated with vehicle (DMSO) or the indicated compounds (400 nM) for 16 hours. HO-1, thioredoxin reductase-1 (TrxR1), and γ-glutamylcysteine synthetase (γ-GCS) mRNA levels were quantified using qPCR and were normalized relative to a DMSO-treated sample run in parallel. Values are averages of duplicate wells. FIGS. 44D, 46D, 47D: MDA-MB-435 cells were treated with vehicle (DMSO) or the indicated compounds at 400 nM for 16 hours. HO-1, TrxR1 and actin protein levels were assayed by immunoblotting.
(§2) FIG. 45. Induction of HO-1, TrxR1 and γ-GCS. FIGS. 45 A-C: MDA-MB-435 cells were treated with vehicle (DMSO) or the indicated compounds at 160 nM for 16 hours. HO-1, TrxR1, and γ-GCS mRNA levels were quantified by qPCR and were normalized relative to a DMSO-treated sample run in parallel. Values are averages of duplicate wells. FIGS. 44D, 46D, 47D: MDA-MB-435 cells were treated with vehicle (DMSO) or the indicated compounds at 160 nM for 16 hours. HO-1, TrxR1 and actin protein levels were assayed by immunoblotting.
(§3) MDA-MB-435 human melanoma cells were treated with vehicle (DMSO) or the indicated compounds and concentrations for 16 hours. HO-1, thioredoxin reductase-1 (TrxR1), γ-glutamylcysteine synthetase (γ-GCS), and ferritin heavy chain mRNA levels were quantified using qPCR and were normalized relative to a DMSO-treated sample run in parallel. Values are averages of duplicate wells. Primer sequences are as follows.

RAW264.7 macrophages = test: Cell viability, WST-1 reagent; assay type: cell-based, mouse; details: Mus musculus, 2 h pre-treatment, then 20 ng/ml IFNγ for 24 hours
Method: (§4) FIGS. 1-34. Inhibition of NO Production. RAW264.7 macrophages were pre-treated with DMSO or drugs at various concentrations (nM) for 2 hours, then treated with 20 ng/ml IFNγ for 24 hours. NO concentration in media was determined using the Griess reagent system; cell viability was determined using WST-1 reagent. FIGS. 49-52. Inhibition of NO Production. RAW264.7 macrophages were pre-treated with DMSO or drugs at various concentrations (nM) for 2 hours, then treated with 20 ng/ml IFNγ for 24 hours. NO concentration in media was determined using the Griess reagent system; cell viability was determined using WST-1 reagent. RAW264.7 macrophages were pre-treated with DMSO or drugs for 2 hours, then treated with recombinant mouse IFNγ (Sigma) for 24 hours. NO concentration in media was determined using the Griess reagent system (Promega). Cell viability was determined using WST-1 reagent (Roche).

[1] = system: IFNγ-induced NO production in RAW264.7 macrophages; test: Suppression of IFNγ-induced NO production (Griess reagent); assay type: cell-based, mouse; details: Mus musculus, 2 h pre-treatment, then 20 ng/ml IFNγ for 24 hours
Method: as §4

iNOS [2] = test: iNOS Western blot in RAW264.7 mouse macrophages; assay type: cell-based; details: compounds at 300 nM for 2 hours, 24 hour induction by IFNγ, read-out: iNOS suppr. WB
Method: FIGS. 38-40. iNOS Western Blot in RAW264.7 mouse macrophages. Cells were pretreated by compounds at 300 nM for 2 hours, followed by 24 hour induction by IFNγ (20 ng/ml). […]

γ-GCS = test: Nrf2 target gene induction in MDA-MB-435 cells, qPCR: γ-GCS; assay type: cell-based, human; details: 160 nM, 16 hours
Method: as §1, §2, §3

iNOS [3] = test: Suppression of iNOS mRNA induction, qPCR; assay type: cell-based, mouse; details: RAW264.7; 2 h pre-treatment, 10 ng/ml IFNγ for 2 hours
Method: (§5) FIG. 35. Suppression of iNOS mRNA induction. RAW264.7 mouse macrophages were pre-treated for 2 hours with compounds at the indicated concentrations and subsequently stimulated with 10 ng/ml IFNγ for an additional 2 hours. mRNA levels of iNOS were quantified by qPCR and are shown relative to the vehicle-treated IFNγ-stimulated sample which was normalized to a value of 1. Values are averages of duplicate PCR reactions, each with triplicate wells.
as §5, with “36.” for “35.”
as §5, with “37.” for “35.”
as §5, with “RAW264.7” for “FIG. 35. Suppression of iNOS mRNA induction. RAW264.7”, “macrophage cells” for “macrophages”

TrxR1 = test: Nrf2 target gene induction in MDA-MB-435 cells, qPCR: TrxR1; assay type: cell-based, human; details: 16 hours
Method: as §1, §2, §3

| Compound | HO-1 induction (HO-1; 160 nM) | IC50 (RAW264.7 macrophages) [nM] | IC50 [1] [nM] | inhibition at 0.3 µM (iNOS [2]) [%] | γ-GCS induction (γ-GCS) | iNOS suppr. qPCR (iNOS [3]) [%] | TrxR1 induction (TrxR1; 160 nM) | HO-1 induction (HO-1; 400 nM) | TrxR1 induction (TrxR1; 400 nM) |
| --- | --- | --- | --- | --- | --- | --- | --- | --- | --- |
| C=CC(=O)N[C@]12CCC(C)(C)C[C@H]1[C@H]1C(=O)C=C3[C@@]4(C)C=C(C#N)C(=O)C(C)(C)[C@@H]4CC[C@@]3(C)[C@]1(C)CC2 [Compound 63183, N-((4aS,6aR,6bS,8aR,12aS,14aR,14bS)-11-cyano-2,2,6a,6b,9,9,12a-heptamethyl-10,14-dioxo-1,2,3,4,4a,5,6,6a,6b,7,8,8a,9,10,12a,14,14a,14b-octadecahydropicen-4a-yl)acrylamide] | 28% of induction observed for RTA 402 | 150 | 4 | ~90 | 55% of induction observed for RTA 402 | 50 | 71% of induction observed for RTA 402 |  |  |
| COC(=O)N[C@]12CCC(C)(C)C[C@H]1[C@H]1C(=O)C=C3[C@@]4(C)C=C(C#N)C(=O)C(C)(C)[C@@H]4CC[C@@]3(C)[C@]1(C)CC2 [Compound 63167, methyl-(4aS,6aR,6bS,8aR,12aS,14aR,14bS)-11-cyano-2,2,6a,6b,9,9,12a-heptamethyl-10,14-dioxo-1,2,3,4,4a,5,6,6a,6b,7,8,8a,9,10,12a,14,14a,14b-octadecahydropicen-4a-ylcarbamate] |  | 180 | 2 | ~90 |  | ~50 |  | 61% of induction observed for RTA 402 | 62% of induction observed for RTA 402 |
| CC1(C)CC[C@]2(N)CC[C@]3(C)[C@H](C(=O)C=C4[C@@]5(C)C=C(C#N)C(=O)C(C)(C)[C@@H]5CC[C@]43C)[C@@H]2C1 [Compound 63169, (4aR,6aS,6bR,8aS,12aS,12bR,14bS)-8a-amino-4,4,6a,6b,11,11,14b-heptamethyl-3,13-dioxo-3,4,4a,5,6,6a,6b,7,8,8a,9,10,11,12,12a,12b,13,14b-octadecahydropicene-2-carbonitrile] | 2% of induction observed for RTA 402 | > 200 | 3.6 | ~90 | 73% of induction observed for RTA 402 | ~50 | 129% of induction observed for RTA 402 |  |  |
| CCS(=O)(=O)N[C@]12CCC(C)(C)C[C@H]1[C@H]1C(=O)C=C3[C@@]4(C)C=C(C#N)C(=O)C(C)(C)[C@@H]4CC[C@@]3(C)[C@]1(C)CC2 [Compound 63193, N-((4aS,6aR,6bS,8aR,12aS,14aR,14bS)-11-cyano-2,2,6a,6b,9,9,12a-heptamethyl-10,14-dioxo-1,2,3,4,4a,5,6,6a,6b,7,8,8a,9,10,12a,14,14a,14b-octadecahydropicen-4a-yl)ethanesulfonamide] | 6% of induction observed for RTA 402 | > 200 | 1.5 | > 90 | 55% of induction observed for RTA 402 | ~65 | 86% of induction observed for RTA 402 |  |  |
| CC1(C)CC[C@]2(NS(=O)(=O)c3ccccc3)CC[C@]3(C)[C@H](C(=O)C=C4[C@@]5(C)C=C(C#N)C(=O)C(C)(C)[C@@H]5CC[C@]43C)[C@@H]2C1 [Compound 63192, N-((4aS,6aR,6bS,8aR,12aS,14aR,14bS)-11-cyano-2,2,6a,6b,9,9,12a-heptamethyl-10,14-dioxo-1,2,3,4,4a,5,6,6a,6b,7,8,8a,9,10,12a,14,14a,14b-octadecahydropicen-4a-yl)benzenesulfonamide] | 1% of induction observed for RTA 402 | 150 | 2.8 | > 90 | 9% of induction observed for RTA 402 | ~60 | 14% of induction observed for RTA 402 |  |  |
| CC1(C)CC[C@]2(NS(C)(=O)=O)CC[C@]3(C)[C@H](C(=O)C=C4[C@@]5(C)C=C(C#N)C(=O)C(C)(C)[C@@H]5CC[C@]43C)[C@@H]2C1 [Compound 63175, N-((4aS,6aR,6bS,8aR,12aS,14aR,14bS)-11-cyano-2,2,6a,6b,9,9,12a-heptamethyl-10,14-dioxo-1,2,3,4,4a,5,6,6a,6b,7,8,8a,9,10,12a,14,14a,14b-octadecahydropicen-4a-yl)methanesulfonamide] | 15% of induction observed for RTA 402 | 200 | 2 | ~90 | 64% of induction observed for RTA 402 | ~65 | 86% of induction observed for RTA 402 | 10% of induction observed for RTA 402 | 48% of induction observed for RTA 402 |
| CC1(C)CC[C@]2(NS(=O)(=O)C3CC3)CC[C@]3(C)[C@H](C(=O)C=C4[C@@]5(C)C=C(C#N)C(=O)C(C)(C)[C@@H]5CC[C@]43C)[C@@H]2C1 [Compound 63243, N-((4aS,6aR,6bS,8aR,12aS,14aR,14bS)-11-cyano-2,2,6a,6b,9,9,12a-heptamethyl-10,14-dioxo-1,2,3,4,4a,5,6,6a,6b,7,8,8a,9,10,12a,14,14a,14b-octadecahydropicen-4a-yl)cyclopropanesulfonamide] | 25% of induction observed for RTA 402 | 150 | 2.9 | ~90 | 36% of induction observed for RTA 402 | 50 | 57% of induction observed for RTA 402 |  |  |
| CC1(C)CC[C@]2(NC(=O)N3CCC(O)CC3)CC[C@]3(C)[C@H](C(=O)C=C4[C@@]5(C)C=C(C#N)C(=O)C(C)(C)[C@@H]5CC[C@]43C)[C@@H]2C1 [Compound 63185, N-((4aS,6aR,6bS,8aR,12aS,14aR,14bS)-11-cyano-2,2,6a,6b,9,9,12a-heptamethyl-10,14-dioxo-1,2,3,4,4a,5,6,6a,6b,7,8,8a,9,10,12a,14,14a,14b-octadecahydropicen-4a-yl)-4-hydroxypiperidine-1-carboxamide] | 1% of induction observed for RTA 402 | > 200 | 91 | 0 | 27% of induction observed for RTA 402 | 0 | 71% of induction observed for RTA 402 |  |  |

Reference: patent US9670147B2, “Antioxidant inflammation modulators: oleanolic acid derivatives with amino and other modifications at C-17” (REATA PHARMACEUTICALS, INC., priority 2008, dated 2017)
